Here are results for two molecules from patent US11319289B2, “5-hydroxy pyridine-based compound for use as P2X1 and P2X3 receptor antagonist and pharmaceutical composition comprising same” (GWANGJU INSTITUTE OF SCIENCE AND TECHNOLOGY, priority 2017, dated 2022).

In data set [1] the test system is CIPN rats (mechanical allodynia). Description: Antiallodynic effect (von Frey) in chemotherapy-induced peripheral neuropathy (CIPN) rats. The note with it: Rattus norvegicus, intravenous administration. Type of data set: in vivo. As to the method: 3-1. Evaluation of In Vivo Efficacy
The antiallodynic effects (mechanical allodynia) were evaluated using rats according to a previously reported protocol. In order to evaluate the withdrawal threshold, rats (naive, SNL and CIPN) were placed on a plastic mesh floor of individual plastic cages. The rats were allowed to acclimate to the environment for 30 minutes and examined after intrathecal or intravenous administration to the caudal vein. The control group received the same volume of vehicle (intrathecal administration of saline or DMSO, intravenous administration of DMSO:PEG:PBS=1:6:3 v/v %) as the experimental groups. Evaluation of the mechanical withdrawal threshold was measured in responses to the application of calibrated von Frey filaments (Stoelting, Wood Dale, Ill., USA) to the hind paw of the rats through the holes on the mesh floor underneath the cage using the ‘up and down method’. A series of eight von Frey filaments (0.4, 0.7, 1.2, 2.0, 3.6, 5.5, 8.5, and 15 g) was applied perpendicular to the sole of the hind paw for 5 seconds while the head was bent. Active withdrawal or flinching of the paw was considered as a positive reaction. The absence of response in the rats, when a pressure was applied to 15 g von Frey filament, was used as a cut-off value. Only rats with definite allodynia (i.e., mechanical withdrawal threshold: less than 4 g after SNL or less than 5 g after CIPN) were tested. The rats after termination of the experiments were euthanized through an overdose of sevoflurane. The withdrawal threshold data for the von Frey filament test was calculated as % MPE (maximum possible effect) based on the following Calculation Equation: % MPE=[(Post-drug threshold−Post-injured baseline threshold)/(Cutoff threshold−post-injured baseline threshold)×100]. Dose-response data were analyzed using Scheffe's post hoc test and one-way analysis of variance (ANOVA).

For a further data set, the target named is T1, rP2X2/3 receptors (Rattus norvegicus, UniProt P49653+P49654).
T1 sequence (P49653 1-472): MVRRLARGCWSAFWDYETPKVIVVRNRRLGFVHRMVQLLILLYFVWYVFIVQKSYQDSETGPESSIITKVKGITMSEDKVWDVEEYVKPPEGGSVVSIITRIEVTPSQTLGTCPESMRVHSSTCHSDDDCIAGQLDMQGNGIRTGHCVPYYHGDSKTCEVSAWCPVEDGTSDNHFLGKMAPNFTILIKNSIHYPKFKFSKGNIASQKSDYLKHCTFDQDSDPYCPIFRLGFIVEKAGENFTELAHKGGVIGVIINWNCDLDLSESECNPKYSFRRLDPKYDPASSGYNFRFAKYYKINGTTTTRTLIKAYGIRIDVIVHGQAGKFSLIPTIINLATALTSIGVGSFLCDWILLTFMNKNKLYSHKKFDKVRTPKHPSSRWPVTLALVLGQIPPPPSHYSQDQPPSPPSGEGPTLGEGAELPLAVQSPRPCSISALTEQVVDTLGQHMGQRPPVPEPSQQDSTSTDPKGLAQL
T1 sequence (P49654 1-397): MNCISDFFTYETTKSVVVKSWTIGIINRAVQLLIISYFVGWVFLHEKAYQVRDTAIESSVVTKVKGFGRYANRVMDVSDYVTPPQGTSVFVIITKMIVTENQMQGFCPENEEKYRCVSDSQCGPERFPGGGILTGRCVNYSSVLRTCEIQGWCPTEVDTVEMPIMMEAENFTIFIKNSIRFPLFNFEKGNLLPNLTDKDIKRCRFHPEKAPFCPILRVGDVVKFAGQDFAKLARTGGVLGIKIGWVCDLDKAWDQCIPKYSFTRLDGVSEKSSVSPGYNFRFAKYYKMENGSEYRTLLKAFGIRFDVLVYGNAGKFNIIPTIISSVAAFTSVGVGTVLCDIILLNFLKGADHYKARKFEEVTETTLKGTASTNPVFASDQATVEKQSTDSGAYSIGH
Description: Antagonistic effect for heterologous rP2X2/3 receptors. Type of data set: cell-based. The note with it: FIG. 2. An excerpt:
FIGS. 2a to 2c show the antagonistic activity of Compound 29 of the present invention for P2X3 and P2X2/3 receptors (2a: hP2X3R, 2b: […]).

The next data set concerns the target T2, CYP1A2 (Homo sapiens, UniProt P05177).
T2 construct: purchased Invitrogen
T2 sequence (P05177 1-516): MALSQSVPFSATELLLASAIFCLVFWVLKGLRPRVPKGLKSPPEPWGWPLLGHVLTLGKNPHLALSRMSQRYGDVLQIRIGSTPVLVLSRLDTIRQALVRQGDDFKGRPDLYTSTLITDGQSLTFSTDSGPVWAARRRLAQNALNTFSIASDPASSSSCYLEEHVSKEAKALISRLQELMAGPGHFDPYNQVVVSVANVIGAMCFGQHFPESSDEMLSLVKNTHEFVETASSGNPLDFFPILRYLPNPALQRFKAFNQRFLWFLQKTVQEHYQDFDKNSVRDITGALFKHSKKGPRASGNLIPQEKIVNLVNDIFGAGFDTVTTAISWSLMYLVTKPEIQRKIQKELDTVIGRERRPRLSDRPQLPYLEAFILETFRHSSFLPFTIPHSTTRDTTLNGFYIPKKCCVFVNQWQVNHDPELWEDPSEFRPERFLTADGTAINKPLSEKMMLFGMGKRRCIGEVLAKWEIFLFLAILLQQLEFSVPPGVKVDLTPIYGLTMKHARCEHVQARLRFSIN
Put plainly: CYP inhibition assay (Vivid fluorometric), 1A2. Type of data set: biochemical. The conditions noted are these: human, recombinant human CYP1A2, pH 8; 1 μM in Table 5; read-out: CYP450 inhibition, 1A2 isozyme. As for the experimental part: (§1) CYP450 (1A2, 2C9, 3A4) enzyme assay was performed by a fluorometric assay using a Vivid® CYP450 screening kit (Invitrogen, USA, CA) in a 96-well black plate according to manufacturer's instructions with some modifications. The assay was performed at room temperature, and the final assay volume was 100 μL. […]
(§2) A master pre-mixture (enzyme (0.5 nmol recombinant human CYP450 enzyme)/NADP regeneration solution (333 mM glucose-6-phosphate dissolved, 30 U/mL glucose-6-phosphate dehydrogenase in 100 mM KH2PO4 solution at pH 8.0)) was prepared as a CYP450 reaction buffer (200 mM KH2PO4, pH 8.0). The master pre-mixture was added to each well of the 96 well plate, followed by the vehicle DMSO (control) and test compounds, and the mixture was preincubated for 10 minutes in the plate for background reading. Subsequently, the enzyme reaction was immediately initiated through the addition of CYP450 substrate/NADP^+ mixture. After incubation for 40 minutes, the fluorescence of the product was measured with a CHAMELEON™ multi-technology plate reader (2C9, 3A4: excitation wavelength of 530 nm and emission wavelength of 590 nm, 1A2: excitation wavelength of 415 nm and emission wavelength of 460 nm). The effect of the test compounds on CYP450 (1A2, 2C9, 3A4) was expressed as the percentage of enzyme activity.

Another data set has as its target T3, CYP450 1A2 (Homo sapiens, UniProt P05177).
T3 construct: purchased Invitrogen
T3 sequence (P05177 1-516): T2 sequence (P05177 1-516)
Put plainly: CYP inhibition assay (Vivid fluorometric), 1A2. The format is biochemical. The note with it: 1 μM in Table 5. As for the experimental part: as §1, §2

As a reminder, the ED50 is the dose that gives a 50% effect, or the effect in half of the subjects. The low end stands for greater potency, the high end for weaker potency. As a reminder, the inhibition is the drop in the measured response relative to a control, in per cent.

Molecules are shown by their SMILES.

`CCCc1nc(Cc2cccc(Oc3ccccc3)c2)c(C)c(C(=O)OC)c1O` [Compound 28, Methyl 3-hydroxy-5-methyl-6-(3-phenoxybenzyl)-2-propylisonicotinate] came in with an ED50 in data set [1] of 2.93 mg/kg.

Consider `CCCc1nc(Cc2cccc(Oc3ccccc3)c2)c(C)c(C(=O)O)c1O` [Compound 29, 3-Hydroxy-5-methyl-6-(3-phenoxybenzyl)-2-propylisonicotinic acid], for which the “antagonistic effect for heterologous rP2X2/3 receptors” value at rP2X2/3 receptors was “showed an antagonistic effect”. Besides, on CYP1A2, the inhibition at 40 min, 1 µM amounted to 36 ± 3%. Moreover, the “CYP450 inhibition, 1A2 isozyme” value at CYP450 1A2 is recorded as “weak inhibitory effect”.
